Data published in EP4722203A1, “3,4-DIHYDROPHTHALAZIN-1(2H)-ONE DERIVATIVE, AND PREPARATION METHOD THEREFOR AND USE THEREOF” (Academy of Military Medical Sciences, priority 2023, dated 2024).

What was measured:
Format in all cases: cell-based
WSU-DLCL-2 cells = test: Antiproliferative activity, CCK-8 assay; settings: Homo sapiens, WSUDLCL2; 144 hours incubation, CCK-8, absorbance at 450 nm
Protocol: (§1) The cell models used in this example were human hematologic tumor cells, including NCI-H929, RPMI-8226, MV-4-11, U937 and WSU-DLCL-2. Some of the compounds of the present invention were selected to determine their inhibitory activity against the proliferation of NCI-H929, RPMI-8226, MV-4-11, U937, and WSU-DLCL-2 cells.
(§2) • ① The selected compounds were dissolved in DMSO to prepare 10 mM stock solutions. Compounds used within three months should be stored at room temperature in a desiccator; others could be stored at -20°C for long-term storage. • ② The above stock solutions and the positive reference compound pomalidomide were diluted with DMSO. Their initial concentrations were 10 µM. In the experiments of NCI-H929 and RPMI-8226 cells, 3-fold serial dilution with 11 concentration points was performed, with the lowest concentration of 0.00047 µM. The resulting solutions were shaken on a shaker for 5 minutes.
(§3) • ① The NCI-H929, RPMI-8226, MV-4-11, U937, and WSU-DLCL-2 cells in logarithmic growth phase were inoculated in a 96-well plate, 20,000 to 30,000 cells per well, and the plate was pre-cultured for 24 hours in an incubator (at 37°C and 5% CO2). • ② The culture medium in the plate was replaced, and the compounds and the positive control with corresponding concentrations were added to the plated at a volume of 50 µl. • ③ The plate was incubated for 144 hours in an incubator, then 15 µl of CCK-8 solution was added to each well, and incubated in the incubator for another 1-4 hours. • ④ The absorbance at 450 nm was measured using a microplate reader.
(§4) • ① Calculating % Inhibition: [formula] • ② Calculating IC50 value of compound and plotting dose-response curve: The IC50 value was calculated by fitting the % Inhibition and the logarithm of compound concentration to a nonlinear regression (dose response-variable slope) by using GraphPad 6.0. • Y = Bottom + (Top - Bottom) / (1 + 10^((LogIC50 - X) * HillSlope)) • X: log of inhibitor concentration; Y: % Inhibition.
(§5) After calculating % Inhibition, a dose-response curve was plotted with the logarithm of the test compound concentration as the x-axis and the average cell viability as the y-axis, and the IC50 value was obtained by fitting.

U937 cells = test: Antiproliferative activity, CCK-8 assay; settings: Homo sapiens, U-937; 144 hours incubation, CCK-8, absorbance at 450 nm
Protocol: as §1, §2, §3, §4, §5

RPMI-8226 cells = test: Antiproliferative activity, CCK-8 assay; settings: Homo sapiens, 144 hours incubation, CCK-8, absorbance at 450 nm
Protocol: as §1, §2, §3, §4, §5

MV-4-11 cells = test: Antiproliferative activity, CCK-8 assay; settings: Homo sapiens, MV4-11; 144 hours incubation, CCK-8, absorbance at 450 nm
Protocol: as §1, §2, §3, §4, §5

NCI-H929 cells = test: Antiproliferative activity, CCK-8 assay; settings: Homo sapiens, 144 hours incubation, CCK-8, absorbance at 450 nm, read-out: IC50 (µM) H-929
Protocol: as §1, §2, §3, §4, §5

[1] = system: RPMI-8226-Lenalidomide-R cells; test: Antiproliferative activity against resistant cells, CCK-8 assay; settings: Homo sapiens, 144 hours incubation
Protocol: (§6) In this example, lenalidomide-resistant human multiple myeloma cells, including NCI-H929 (NCI-H929-Lenalidomide-R) and RPMI-8226 (RPMI-8226-Lenalidomide-R), and pomalidomide-resistant human multiple myeloma cells, including NCI-H929 (NCI-H929-pomalidomide-R) and RPMI-8226 (RPMI-8226-pomalidomide-R), were selected as cell models to determine the inhibitory activity of compound I-8 of the present invention against the proliferation of the resistant cells.
(§7) • ① I-8 was dissolved in DMSO to prepare a 10 mM stock solution. Compounds used within three months should be stored at room temperature in a desiccator; others could be stored at -20°C for long-term storage. • ② The I-8 stock solution and the reference compounds lenalidomide and pomalidomide were all diluted with DMSO. Their initial concentrations were 10 µM. In the experiments of lenalidomide-resistant human multiple myeloma cells (NCI-H929 (NCI-H929-Lenalidomide-R) and RPMI-8226 (RPMI-8226-Lenalidomide-R) and pomalidomide-resistant human multiple myeloma cells (NCI-H929 (NCI-H929-pomalidomide-R) and RPMI-8226 (RPMI-8226-pomalidomide-R), 3-fold serial dilution with 11 concentration points was performed, with the lowest concentration of […]. The resulting solutions were shaken on a shaker for 5 minutes.
(§8) • ① The NCI-H929-Lenalidomide-R, RPMI-8226-Lenalidomide-R, NCI-H929-pomalidomide-R, and RPMI-8226-pomalidomide-R cells in logarithmic growth phase were inoculated in a 96-well plate, 20,000 to 30,000 cells per well, and the plate was pre-cultured for 24 hours in an incubator (at 37°C and 5% CO2). • ® The culture medium in the plate was replaced, and the compounds and the positive controls with corresponding concentrations were added to the plated at a volume of 50 µL. • ③ The plate was incubated for 144 hours in an incubator, then 15 µL of CCK-8 solution was added to each well, and the plate was incubated in the incubator for another 1-4 hours. • ④ The absorbance at 450 nm was measured using a microplate reader.
as §4, with “6.0.” for “6.0. •”, “(Top−Bottom)/(1+10^(∧)((LogIC50−X)*HillSlope)) [formula]” for “(Top - Bottom) / (1 + 10^((LogIC50 - X) * HillSlope)) •”
as §5

[2] = system: RPMI-8226-pomalidomide-R cells; test: as above; settings: Homo sapiens, 144 hours incubation
Protocol: as §6, §7, §8
as §4, with “6.0.” for “6.0. •”, “(Top−Bottom)/(1+10^(∧)((LogIC50−X)*HillSlope)) [formula]” for “(Top - Bottom) / (1 + 10^((LogIC50 - X) * HillSlope)) •”
as §5

[3] = system: NCI-H929-Lenalidomide-R cells; test: as above; settings: Homo sapiens, 144 hours incubation
Protocol: as §6, §7, §8
as §4, with “6.0.” for “6.0. •”, “(Top−Bottom)/(1+10^(∧)((LogIC50−X)*HillSlope)) [formula]” for “(Top - Bottom) / (1 + 10^((LogIC50 - X) * HillSlope)) •”
as §5

[4] = system: NCI-H929-pomalidomide-R cells; test: as above; settings: Homo sapiens, 144 hours incubation
Protocol: as §6, §7, §8
as §4, with “6.0.” for “6.0. •”, “(Top−Bottom)/(1+10^(∧)((LogIC50−X)*HillSlope)) [formula]” for “(Top - Bottom) / (1 + 10^((LogIC50 - X) * HillSlope)) •”
as §5

| IC50 (U937 cells) | IC50 (RPMI-8226 cells) | IC50 (MV-4-11 cells) | IC50 (NCI-H929 cells) | IC50 [1] | IC50 [2] | IC50 [3] | IC50 [4] | Structure (SMILES) | IC50 (WSU-DLCL-2 cells) |
| --- | --- | --- | --- | --- | --- | --- | --- | --- | --- |
| 4.13 µM | 2.97 µM | 0.294 µM | 2.54 µM | – | – | – | – | CN1Cc2cc([N+](=O)[O-])ccc2C(=O)N1C1CCC(=O)NC1=O (centres unmarked) [I-11, 3-(3-methyl-6-nitro-1-oxo-3,4-dihydrophthalazin-2(1H)-yl)piperidin-2,6-dione] | 2.65 µM |
| > 10 µM | 0.38 µM | 0.215 µM | 5.85 µM | – | – | – | – | CN1Cc2cc(N)ccc2C(=O)N1C1CCC(=O)NC1=O (centres unmarked) [I-10, 3-(6-amino-3-methyl-1-oxo-3,4-dihydrophthalazin-2(1H)-yl)piperidin-2,6-dione] | 0.7 µM |
| 1.33 µM | 8.31 µM | > 10 µM | 0.311 µM | – | – | – | – | CNc1cccc2c1CN(C)N(C1CCC(=O)NC1=O)C2=O (centres unmarked) [I-2, 3-(3-methyl-5-(methylamino)-1-oxo-3,4-dihydrophthalazin-2(1H)-yl)piperidin-2,6-dione] | 1.06 µM |
| – | – | – | – | > 100 µM | > 100 µM | > 100 µM | > 100 µM | Nc1cccc2c1CN(C1CCC(=O)NC1=O)C2=O (centres unmarked) [Lenalidomide] | – |
| 0.666 µM | 0.641 µM | 0.174 µM | 0.243 µM | – | – | – | – | CN1Cc2c(NCc3ccc(CN4CCN(C(=O)OC(C)(C)C)CC4)cc3)cccc2C(=O)N1C1CCC(=O)NC1=O (centres unmarked) [I-5, tert-butyl 4-(4-(((2-(2,6-dioxopiperidin-3-yl)-3-methyl-1-oxo-1,2,3,4-tetrahydrophthalazin-5-yl)amino)methyl)benzyl)piperazin-1-carboxylate] | 0.108 µM |
| 0.0522 µM | 1.26 µM | 0.0311 µM | 0.032 µM | – | – | – | – | CN1Cc2c(NCc3ccc(CN4CCN(c5ccc(F)cc5)CC4)cc3)cccc2C(=O)N1C1CCC(=O)NC1=O (centres unmarked) [I-6] | 0.048 µM |
